Reference: article PMC3162300 (Journal of Natural Products, 2011)
Marks after values point to notes of the source that are not given here.

Tests used:
COX-2 = target: T1, COX-2 (Ovis aries, UniProt P79208); assay: COX-2 inhibition assay; format: biochemical, sheep; details: read-out: inhibition of COX-2
T1 sequence (P79208 17-603): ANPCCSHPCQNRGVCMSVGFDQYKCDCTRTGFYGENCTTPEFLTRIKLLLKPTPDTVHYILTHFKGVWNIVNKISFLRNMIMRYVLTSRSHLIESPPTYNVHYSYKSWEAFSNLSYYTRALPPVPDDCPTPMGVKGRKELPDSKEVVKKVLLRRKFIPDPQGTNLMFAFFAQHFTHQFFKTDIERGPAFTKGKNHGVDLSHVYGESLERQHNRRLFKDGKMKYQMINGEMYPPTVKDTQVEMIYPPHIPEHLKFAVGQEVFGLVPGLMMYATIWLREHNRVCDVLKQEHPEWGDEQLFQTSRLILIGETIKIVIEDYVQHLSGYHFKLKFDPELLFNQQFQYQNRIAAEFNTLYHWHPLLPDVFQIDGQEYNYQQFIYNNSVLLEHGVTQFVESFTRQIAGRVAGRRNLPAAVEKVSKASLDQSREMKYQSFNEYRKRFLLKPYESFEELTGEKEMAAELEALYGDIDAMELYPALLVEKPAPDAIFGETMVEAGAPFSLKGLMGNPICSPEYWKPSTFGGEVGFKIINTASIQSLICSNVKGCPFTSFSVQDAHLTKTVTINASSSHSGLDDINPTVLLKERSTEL

COX-1 = target: T2, COX-1 (Ovis aries, UniProt P05979); assay: COX-1 inhibition assay; format: biochemical, ram; details: read-out: inhibition of COX-1
T2 sequence (P05979 25-600): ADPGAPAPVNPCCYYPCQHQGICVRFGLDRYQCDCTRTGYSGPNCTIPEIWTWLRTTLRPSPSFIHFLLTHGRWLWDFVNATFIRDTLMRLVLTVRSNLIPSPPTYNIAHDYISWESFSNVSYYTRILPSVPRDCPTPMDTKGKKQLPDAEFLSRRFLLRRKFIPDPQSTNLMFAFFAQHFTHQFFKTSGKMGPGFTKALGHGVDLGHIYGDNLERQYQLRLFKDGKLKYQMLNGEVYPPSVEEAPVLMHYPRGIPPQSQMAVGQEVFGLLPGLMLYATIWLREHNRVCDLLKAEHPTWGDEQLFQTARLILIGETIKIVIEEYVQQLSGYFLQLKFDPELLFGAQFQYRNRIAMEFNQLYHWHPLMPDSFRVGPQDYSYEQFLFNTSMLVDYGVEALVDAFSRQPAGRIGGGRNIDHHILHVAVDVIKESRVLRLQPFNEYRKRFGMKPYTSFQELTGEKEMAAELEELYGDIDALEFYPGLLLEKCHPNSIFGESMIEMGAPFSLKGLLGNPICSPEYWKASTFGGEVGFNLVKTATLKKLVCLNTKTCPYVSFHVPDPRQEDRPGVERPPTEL

[1] = tested on: croton oil-induced ear dermatitis (edema); assay: Croton oil-induced mouse ear dermatitis: edematous response
[2] = DPPH free-radical-scavenging assay; details: up to 100 μM
[3] = tested on: croton oil-induced ear dermatitis (ear tissue histology); assay: Histological analysis of ear tissue after croton oil dermatitis
5-LO = target: T3, 5-LO (Homo sapiens, UniProt P09917); format: cell-based; details: read-out: inhibition of leukotriene formation
T3 sequence (P09917 1-674): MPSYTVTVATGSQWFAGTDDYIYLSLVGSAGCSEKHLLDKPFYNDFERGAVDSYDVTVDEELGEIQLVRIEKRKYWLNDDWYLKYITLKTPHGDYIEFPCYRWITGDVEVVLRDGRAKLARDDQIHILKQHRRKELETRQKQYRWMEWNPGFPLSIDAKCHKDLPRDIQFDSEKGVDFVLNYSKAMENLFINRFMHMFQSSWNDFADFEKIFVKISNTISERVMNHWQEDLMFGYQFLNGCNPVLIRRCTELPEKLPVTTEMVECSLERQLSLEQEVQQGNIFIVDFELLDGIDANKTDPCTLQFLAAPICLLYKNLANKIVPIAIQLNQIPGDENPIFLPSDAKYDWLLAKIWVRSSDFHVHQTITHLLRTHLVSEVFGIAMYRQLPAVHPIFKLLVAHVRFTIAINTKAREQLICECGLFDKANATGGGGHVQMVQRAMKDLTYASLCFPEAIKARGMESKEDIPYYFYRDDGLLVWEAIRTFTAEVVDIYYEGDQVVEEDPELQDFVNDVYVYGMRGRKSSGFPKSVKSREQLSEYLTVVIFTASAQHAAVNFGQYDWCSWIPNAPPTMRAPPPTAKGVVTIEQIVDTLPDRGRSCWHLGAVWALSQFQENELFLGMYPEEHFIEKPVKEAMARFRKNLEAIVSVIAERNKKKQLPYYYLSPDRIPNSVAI

[4] = dose giving 50% inhibition of edema, 6 h, topical
[5] = topical dose 0.10 μmol/cm^2, 6 h
[6] = topical dose 0.30 μmol/cm^2, 6 h
[7] = topical dose 1.00 μmol/cm^2, 6 h

Row | SMILES | inhibition at 50 µM (COX-2) [%] | inhibition at 50 µM (COX-1) [%] | ID50 (μg/cm^2) [1, 4] [μg/cm^2] | edema (mg) mean ± SE [1, 5] | edema (mg) mean ± SE [1, 6] | edema (mg) mean ± SE [1, 7] | effect in DPPH assay [2] | ID50 (μmol/cm^2) [1, 4] [μmol/cm^2] | histological finding in ear tissue ([3]; 0.4 μmol/cm^2, 3-48 h) | inhibition at 50 µM (5-LO) [%] | histological finding in ear tissue ([3]; 0.04 μmol/cm^2, 3-48 h) | edema (mg) mean ± SE ([1]; topical dose 0.01 μmol/cm^2, 6 h) | edema (mg) mean ± SE ([1]; topical dose 0.03 μmol/cm^2, 6 h)
1 | C/C=C/c1ccc2oc(-c3ccc(O)cc3)c(C)c2c1 [compound 11, rataniaphenol II] | 57.2 to 83.3 | 57.2 to 83.3 | 106 | 6.0 ± 0.4 mg | 4.0 ± 0.2 ^a mg | 1.7 ± 0.2 ^a mg | no effect | – | – | – | – | – | –
2 | C/C=C/c1ccc2oc(-c3ccc(OC)cc3O)cc2c1 [compound 10, rataniaphenol I] | – | – | 160 | 6.2 ± 0.3 mg | 4.6 ± 0.3 ^a mg | 2.5 ± 0.3 ^a mg | – | – | – | – | – | – | –
3 | C/C=C/c1ccc2c(c1)C(CO)[C@@H](c1ccc(O)cc1)O2 (stereo in doubt) [compound 4, (2S,3S)-2,3-dihydro-3-hydroxymethyl-2-(4-hydroxyphenyl)-5-(E)-propenylbenzofuran] | – | – | 118 | 5.7 ± 0.4 ^a mg | 4.4 ± 0.3 ^a mg | 1.7 ± 0.2 ^a mg | – | 0.42 | – | – | – | – | –
4 | C[C@@H]1[C@H](C)[C@@H](c2ccc(O)cc2)O[C@@H]1c1ccc(O)cc1 [compound 2, (−)-larreatricin] | – | – | 131 | 5.6 ± 0.3 ^a mg | 4.2 ± 0.4 ^a mg | 2.3 ± 0.2 ^a mg | – | – | – | – | – | – | –
5 | C/C=C/c1ccc2oc(-c3ccc(O)cc3)cc2c1 [compound 8, 2-(4-hydroxyphenyl)-5-(E)-propenylbenzofuran] | 57.2 to 83.3 | 57.2 to 83.3 | 110 | 5.9 ± 0.3 ^a mg | 4.5 ± 0.3 ^a mg | 1.8 ± 0.3 ^a mg | no effect | – | – | – | – | – | –
6 | COc1ccc2c(c1)c(CC(=O)O)c(C)n2C(=O)c1ccc(Cl)cc1 [indomethacin, reference compound] | – | – | 104 | 5.2 ± 0.4 ^a mg | 3.4 ± 0.3 ^a mg | 1.4 ± 0.2 ^a mg | – | – | reduced mast cell degranulation and leukocyte infiltration at all observation times | – | – | – | –
7 | COc1cc(O)ccc1-c1cc2cc(CCCO)ccc2o1 [compound 1, 5-(3-hydroxypropyl)-2-(2-methoxy-4-hydroxyphenyl)benzofuran] | – | – | 134 | 6.0 ± 0.3 ^a mg | 4.7 ± 0.3 ^a mg | 1.7 ± 0.1 ^a mg | – | – | – | 80.2 to 94.6 | – | – | –
8 | C/C=C/c1ccc2oc(-c3ccc(O)cc3OC)cc2c1 [compound 9, rataniaphenol III] | 57.2 to 83.3 | 57.2 to 83.3 | 134 | 6.1 ± 0.2 mg | 4.4 ± 0.3 ^a mg | 2.1 ± 0.3 ^a mg | – | – | – | – | – | – | –
9 | C/C=C/c1ccc2oc(-c3ccc(O)cc3O)cc2c1 [compound 6, 2-(2,4-dihydroxyphenyl)-5-(E)-propenylbenzofuran] | 57.2 to 83.3 | 57.2 to 83.3 | 160 | 5.9 ± 0.3 ^a mg | 4.9 ± 0.3 ^a mg | 2.5 ± 0.3 ^a mg | – | – | – | – | – | – | –
10 | C[C@@H]1[C@H](C)[C@@H](c2ccc(O)cc2)O[C@H]1c1ccc(O)cc1 [compound 3, meso-3,3′-didemethoxynectandrin B] | – | – | 102 | 5.9 ± 0.3 ^a mg | 3.3 ± 0.3 ^a mg | 1.9 ± 0.2 ^a mg | – | – | – | – | – | – | –
11 | C[C@]12CCC(=O)C=C1CC[C@@H]1[C@@H]2[C@@H](O)C[C@@]2(C)[C@H]1CC[C@]2(O)C(=O)CO [hydrocortisone, reference compound] | – | – | 11 | 1.6 ± 0.2 ^a mg | – | – | – | – | – | – | attenuation of all the vascular and cellular signs of inflammation | 4.9 ± 0.3 ^a mg | 3.1 ± 0.3 ^a mg
12 | COc1ccc(-c2cc3cc(CCCO)ccc3o2)c(O)c1 [compound 5, 2-(2-hydroxy-4-methoxyphenyl)-5-(3-hydroxypropyl)benzofuran] | – | – | 107 | 5.2 ± 0.3 ^a mg | 3.4 ± 0.2 ^a mg | 2.3 ± 0.2 ^a mg | – | – | general reduction of these vascular and cellular changes due to inflammation | 80.2 to 94.6 | – | – | –
13 | C/C=C/c1ccc2c(c1)[C@@H](C)[C@H](c1ccc(O)cc1)O2 [compound 7, (+)-conocarpan] | – | – | 82 | 5.2 ± 0.4 ^a mg | 3.8 ± 0.2 ^a mg | 1.3 ± 0.1 ^a mg | no effect | – | general reduction of these vascular and cellular changes due to inflammation | 80.2 to 94.6 | – | – | –
